Measurements from patent publication US20060073529A1, “Luciferyl peptide substrate” (priority 2004, published 2006).
The star is where a group is joined. aminoluciferin = O=C(O)[C@H]1CSC(c2nc3ccc(N*)cc3s2)=N1

Columns and labels:
[1] = system: LNCaP, a prostate cancer cell line that produces PSA; assay: in vitro model: PSA-specific substrate on PSA secreting cells (FIG. 7); assay type: cell-based; conditions: serum-free media
Description: The LNCaP cells were incubated for 5 and 19 hours, which represented two time intervals during which the cells were to synthesize PSA, and both cell lines were transfected with SKLQ-aLuc to produce luciferase. […] (“DHT”) was used to investigate its influence on cell growth and PSA production. The cell culture media was serum-free to prevent PSA from forming complexes with various serine-protease inhibitors that are present in the serum.

chymotrypsin [2] = assay: protease assay of FIG. 3, performed in culture; assay type: cell-based
Text: The procedure described in FIG. 2 may be used in in vivo protease assays. Naturally occurring proteases can be used to convert luciferylpeptides to aminoluciferin. These naturally occurring proteases may be associated with a physical state of the body, an organ, tissue, or cells, or may be associated with the location of particular conditions. There, the luciferylpeptide, N-Ac-Phe-aminoluciferin, was synthesized from a solution of 6-amino-2-cyanobenzothiazole, pursuant to the procedure set forth in Monsees et al., supra. […] The aminoluciferin was then available for reaction with luciferase, and in the presence of ATP and O2 in the cells, produced visible light and oxyaminoluciferin. The procedure shown in FIG. 3 was initially performed in culture and subsequently in a transgenic mouse model. This procedure can be modified by adding different compounds to the aminoluciferin, and cleaving the conjugate at the appropriate time and place with specific enzymes.

chymotrypsin [3] = assay: in vivo protease assay: luc mice given substrate plus chymotrypsin injections at selected sites; parameters: species or system mouse; conditions: mice expressing luc gene, further injections with chymotrypsin at selected sites
Description: In FIG. 4A, the pictured mouse was injected with luciferin. […] In FIG. 4B, the mice were injected with the modified substrate N-Ac-Phe-aminoluciferin. […] The dramatic reduction in signal intensity (note scales on images) on the second mouse is due to the lack of freely available substrate for the luciferase reaction. The mouse pictured on the right was subjected to further injections with chymotrypsin at selected sites. Chymotrypsin is a proteolytic enzyme that can use N-Ac-Phe-aminoluciferin as a substrate. […] The freely available aminoluciferin was then catalyzed by luciferase to generate the photons seen in the photograph. […] It can thus be observed that the use of aminoluciferin substrates results in increased versatility for in vivo assays such that protease activity can be assessed in live cells in vivo or in a test tube.
In a one embodiment of the invention, peptide sequences that are conjugated to aminoluciferin are cleaved by the protease chymotrypsin or by chymotrypsin-like proteases, such as, for example, PSA, a clinical marker for prostate cancer.

luciferase [4] = assay: imaging of mice expressing the luc gene after substrate injection; assay type: in vivo, mouse; conditions: substrate injected, no protease injected
Description: In these experiments, injection of the mice with luciferin activates the luciferin-luciferase reaction and the subsequent emission of light, i.e., photons, which can be monitored outside the body using low light imaging systems, based on charge coupled device (“CCD”) cameras.
In FIG. 4A, the pictured mouse was injected with luciferin. […] In FIG. 4B, the mice were injected with the modified substrate N-Ac-Phe-aminoluciferin. […] The mouse pictured on the right was subjected to further injections with chymotrypsin at selected sites. Chymotrypsin is a proteolytic enzyme that can use N-Ac-Phe-aminoluciferin as a substrate.

luciferase [5] = molecular target: luciferase (Photinus pyralis, UniProt P08659); conditions: in the presence of ATP, Mg2+/O2 and luciferase; cited from earlier work
Sequence of luciferase (Photinus pyralis, UniProt P08659) (P08659 whole entry): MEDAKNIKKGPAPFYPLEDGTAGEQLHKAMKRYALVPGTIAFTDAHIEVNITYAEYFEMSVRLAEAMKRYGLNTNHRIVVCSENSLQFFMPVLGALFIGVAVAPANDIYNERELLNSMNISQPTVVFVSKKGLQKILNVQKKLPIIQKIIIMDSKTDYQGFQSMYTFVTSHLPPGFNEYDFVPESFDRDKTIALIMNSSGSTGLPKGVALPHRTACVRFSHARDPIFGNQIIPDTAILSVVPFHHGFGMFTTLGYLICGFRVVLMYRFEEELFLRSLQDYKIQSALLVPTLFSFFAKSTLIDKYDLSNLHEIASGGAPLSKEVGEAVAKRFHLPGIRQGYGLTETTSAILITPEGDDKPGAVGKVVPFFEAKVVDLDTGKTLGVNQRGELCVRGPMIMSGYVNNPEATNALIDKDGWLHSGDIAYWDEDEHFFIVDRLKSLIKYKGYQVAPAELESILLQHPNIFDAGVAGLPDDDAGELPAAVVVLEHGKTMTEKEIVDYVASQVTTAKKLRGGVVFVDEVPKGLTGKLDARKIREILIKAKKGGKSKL

LNCaP tumor (PSA) = assay: in vivo model: SCID mice bearing subcutaneous LNCaP tumor (FIG. 8); parameters: species or system mouse; conditions: FIG. 8B
Description: The peptides were then tested in severe compromised immune deficiency (SCID) mice that bore an LNCaP tumor implanted at a subcutaneous site. […] The mice were injected with luciferin to localize the tumors and confirm their presence. […] The aminoluciferin released from the cleavage of the peptide by PSA is transported across the LNCaP cell membrane and reacts with luciferase to emit light. Thus, the aminoluciferyl peptide is activated by PSA and consequently can be used to target PSA producing cells in animal models.

Which “influence on PSA levels” value ([1]; LNCaP/PC3M) does the source give for C[C@]12CCC(=O)C[C@@H]1CC[C@@H]1[C@@H]2CC[C@]2(C)[C@@H](O)CC[C@@H]12 [DHT, Dihydroxytestosterone] here?
The value was “does not appear to influence”.

What about the “influence on cell growth” value ([1]; LNCaP/PC3M) of the same compound?
Its value is “does not appear to influence”.

Which “luminescence of the intact luciferylpeptide” value (chymotrypsin [2]; before addition of chymotrypsin) does the source give for CC(=O)N[C@@H](Cc1ccccc1)C(=O)Nc1ccc2nc(C3=N[C@@H](C(=O)O)CS3)sc2c1 [N-Ac-Phe-aminoluciferin] here?
Its value is “prevented from luminescing”.

What about the “cleavage of the luciferylpeptide by the protease” value (chymotrypsin [2]; upon addition of chymotrypsin) of the same compound?
The value was “aminoluciferin was cleaved from the luciferylpeptide”.

And the “photon emission from the mouse after protease injection” value (chymotrypsin [3])?
Its value is “only the sites where the protease enzyme was injected produced detectable signals”.

What about the “photon emission from the mouse” value (luciferase [4]) of the same compound?
The value was “only isolated regions of the mouse produced low level photon emission”.

With Nc1ccc2nc(C3=N[C@@H](C(=O)O)CS3)sc2c1 [aminoluciferin, D-(−)-2-(6′-amino-2′-benzothiazolyl)-Δ^2-thiazoline-4-carboxylic Acid] as the compound, how does the “light generation compared with luciferin” value (luciferase [5]) read?
Its value is “generates light to the same extent as does luciferin”.

For O=C(O)[C@H]1CSC(c2nc3ccc(O)cc3s2)=N1 [luciferin, (D)-(−)-2-(6′-Hydroxy-2′-benzothiazolyl)-2-thiazoline-4-carboxylic acid], which “photon emission from the mouse” value (luciferase [4]) is on record?
Its value is “most of the tissues of this mouse emitted visible light”.

For “Ac-Ser-Lys-Leu-Gln-aLuc (Ac-SKLQ-aminoluciferin; SMILES CC(=O)N[C@@H](CO)C(=O)N[C@@H](CCCCN)C(=O)N[C@@H](CC(C)C)C(=O)N[C@@H](CCC(N)=O)C(=O)Nc1ccc2nc(C3=N[C@@H](C(=O)O)CS3)sc2c1) [SKLQ-aLuc]”, which “light emission from LNCaP tumors” value (LNCaP tumor (PSA)) is on record?
Its value is “light emission from these tumors”.

What about the “amount of aminoluciferyl peptide detected in the cells versus PSA secreted” value ([1]; LNCaP incubated 5 and 19 hours, PC3M as non-PSA line) of the same compound?
Its value is “directly proportional to the amount of PSA secreted into the media by the LNCaP cells”.
